Results from EP1100483B1, “GLUCOCORTICOID-SELECTIVE ANTI-INFLAMMATORY AGENTS” (Abbott Laboratories, priority 1998, dated 2000).

molecular target: T1, human estrogen receptor-alpha (Homo sapiens, UniProt P03372); experiment: soluble estrogen receptor-alpha (ER-α) binding assay, [3H]-estradiol competition; conditions: 2-3 nM [3H]-estradiol, 4 °C for 18 hours; Cheng-Prusoff
T1 construct: made in house; host or cells: yeast strain BJ2168, copper-induced
T1 sequence (P03372 1-595): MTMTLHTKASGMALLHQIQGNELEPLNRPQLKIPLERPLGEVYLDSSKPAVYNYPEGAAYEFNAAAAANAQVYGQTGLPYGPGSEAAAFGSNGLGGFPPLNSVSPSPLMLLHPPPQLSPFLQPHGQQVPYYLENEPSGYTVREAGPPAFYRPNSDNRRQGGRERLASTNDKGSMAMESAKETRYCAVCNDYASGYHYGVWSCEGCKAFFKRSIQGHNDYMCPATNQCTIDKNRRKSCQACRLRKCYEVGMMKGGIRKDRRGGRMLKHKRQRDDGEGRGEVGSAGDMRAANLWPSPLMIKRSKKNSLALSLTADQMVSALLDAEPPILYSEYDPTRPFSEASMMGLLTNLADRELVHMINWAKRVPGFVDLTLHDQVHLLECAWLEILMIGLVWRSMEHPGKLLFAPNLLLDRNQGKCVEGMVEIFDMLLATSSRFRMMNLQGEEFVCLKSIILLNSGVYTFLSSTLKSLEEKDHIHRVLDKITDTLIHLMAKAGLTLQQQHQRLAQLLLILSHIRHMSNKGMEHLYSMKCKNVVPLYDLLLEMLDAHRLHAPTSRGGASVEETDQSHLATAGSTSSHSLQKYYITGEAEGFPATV
Excerpt: For soluble estrogen receptor-alpha (ER-α) binding assays, [^3H]- Estradiol (120-140 Ci/mmol) was purchased from New England Nuclear (Boston, MA), 17-beta estradiol was purchased from Sigma Chemical Co. (St. Louis, MO), CHAPS and DTT were purchased from Boehringer Mannheim GmbH (W. Germany) and all other reagents were purchased from Sigma.
The human estrogen receptor-alpha cDNA was cloned into a yeast vector termed pYhERα and used to transform wild type yeast strain BJ2168 following the protocol outlined by Pham, T.A., Hwung Y.P., Santiso-Mere, D., McDonnell D.P., O'Malley, B.W., Ligand-Dependent and Independent Function of the Transactivation Regions of the Human Estrogen Receptor in Yeast, Mol. Endocrinol. 1992, 6, 1043-1050, hereby incorporated by reference. The yeast was induced with copper for 16 hours after which the cells were harvested, washed and the receptor extract prepared in cold buffer via a Bead Beater (BioSpec Products , Bartlesville, OK). Aliquots of the receptor typically contained 5-10 mg/ml of total protein and were stored at -80 °C until used. Estradiol or other competing compounds were prepared as 5 mM stock solutions in either 100% ethanol or DMSO and serial dilutions were carried out in 1:1 DMSO-ethanol. The assay buffer consisted of the following: 300 mM potassium chloride, 10 mM Trizma Base, 2 mM DTT and 5 mM CHAPS , pH=7.5 at room temperature.
Receptor assays were performed in a 250 µL final volume containing from 5-10 µg of extract protein, plus 2-3 nM [^3H]-estradiol and varying concentrations of competing ligand (0 to 10,000 nM). Assays were set up using a 96-well minitube system and incubations were carried out at 4 °C for 18 hours. Equilibrium under these conditions of buffer and temperature was achieved by 6-8 hours. Nonspecific binding was defined as that binding remaining in the presence of 1000 nM unlabeled estradiol. At the end of the incubation period, 200 µL of 6.25% hydroxyapatite was added in wash buffer (binding buffer in the absence of DTT but containing 1 mM CHAPS). Specific ligand binding to receptor was determined by a hydroxyapatite-binding assay according to the protocol outlined by Wecksler, W.R., Norman, A.W, An Hydroxylapatite Batch Assay for the Quantitation of 1α, 25-Dihydroxyvitamin D3-Receptor Complexes. Anal. Biochem. 1979, 92, 314-323, hereby incorporated by reference. Hydroxyapatite absorbs the receptor-ligand complex, allowing for the separation of bound from free radiolabeled ligand. The mixture was vortexed, incubated for 10 minutes at 4 °C, centrifuged, and the supernatant was removed. The hydroxyapatite pellet was washed twice more with the wash buffer. The amount of receptor-ligand complex was determined by liquid scintillation counting of the hydroxyapatite pellet after the addition of […] EcoScint A scintillation cocktail from National Diagnostics (Atlanta, GA.).
After correcting for nonspecific binding, IC50 values were determined. […] The IC50 values were determined graphically from a log-logit plot of the data. […] Standards are included in each assay and resulting Ki values are determined by use of a modified Cheng-Prusoff equation and used to calculate Ki values for "unknown analogs", DeBlasi, A., O'Reilly, K., Motulsky, H.J., Calculating Receptor Number from Binding Experiments Using Same Compound As Radioligand and Competitor, TIPS 1989, 10, 227-229, hereby incorporated by reference.

SMILES	Ki [nM]
O=[N+]([O-])c1ccc(Cl)c(C(c2ccc(NCc3ccccc3)cc2)c2ccc(NCc3ccccc3)cc2)c1 [Example 36, 4',4" bis(N-benzylamino)-2-chloro-5-nitrotriphenylmethane]	> 10000
CNc1ccc(C(c2ccc(NC)cc2)c2cc(Cl)ccc2Cl)cc1 [Example 27, 4',4" bis(methylamino)-2,5-dichlorotriphenylmethane]	> 10000
CN(C)c1ccc(C(Sc2ccccc2)c2cc([N+](=O)[O-])ccc2Cl)cc1 (stereo not drawn) [Example 54, phenyl-[(4'-dimethylaminophenyl)-(2-chloro-5-nitrophenyl)methyl]thioether]	> 10000
CNc1ccc(C(c2ccc(NC)cc2)c2cc([N+](=O)[O-])ccc2Cl)cc1 [Example 23, 4',4" bis(methylamino)-2-chloro-5-nitrotriphenylmethane]	> 10000
CNc1ccc(C(c2ccc(N(C)C)cc2)c2cc([N+](=O)[O-])ccc2Cl)cc1 (stereo not drawn) [Example 39, 4'-dimethylamino-4"-methylamino-2-chloro-5-nitrotriphenylmethane]	> 10000
CN(C)c1ccc(C(c2ccc(N(C)CCO)cc2)c2cc([N+](=O)[O-])ccc2Cl)cc1 (stereo not drawn) [Example 42, 4'-dimethylamino-4"-(N-methyl-N-(2-hydroxyethyl)amino)-2-chloro-5-nitrotriphenylmethane]	> 10000
CNc1ccc(C(c2ccc(N(C)CCOC(C)=O)cc2)c2cc([N+](=O)[O-])ccc2Cl)cc1 (stereo not drawn) [Example 49, 4'-methylamino-4"-(N-(2-acetoxyethyl)-N-methylamino)-2-chloro-5-nitrotriphenylmethane]	> 10000
CN(C)c1ccc(C(Oc2ccccc2)c2cc([N+](=O)[O-])ccc2Cl)cc1 (stereo not drawn) [Example 52, phenyl-[(4'-dimethylaminophenyl)-(2-chloro-5-nitrophenyl)methyl] ether]	> 10000
CC(=O)OCCN(C)c1ccc(C(c2ccc(N(C)C)cc2)c2cc([N+](=O)[O-])ccc2Cl)cc1 (stereo not drawn) [Example 51, 4'-dimethylamino-4"-(N-methyl-N-(2-acetoxyethyl)amino)-2-chloro-5-nitrotriphenylmethane]	> 10000
